Patent US20200017496A1 (priority 2017, published 2020)
Read-outs that look alike come from different tables or passages of the source.

How the values were obtained:
Experiment in all cases: MIC of compounds alone and combined with antibacterials, broth microdilution (CLSI)
Type in all cases: cell-based
[1] = system: Klebsiella oxytoca (KOX) isolates; details: for MIC ATB in combination: AF1 @ 4 μg/mL; for MIC: Klebsiella oxytoca, ATB alone
Summary of the method: (§1)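 Inoculum 5·10^5 CFU/mL (final), log phase, ca-MHB; 16-20 h, 35° C, ambient air. MIC = lowest conc. with no visible growth; ATB MIC read at each compound level.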

[2] = system: Providencia rettgeri (PRE) isolates; details: for MIC: Providencia rettgeri, ATB alone
Summary of the method: as §1

[3] = system: Salmonella typhimurium (STY) isolates; details: for MIC ATB in combination: STY S3371, AF1 @ 4 μg/mL
Summary of the method: as §1

[4] = system: Serratia marcescens (SMA) isolates; details: for MIC: Serratia marcescens
Summary of the method: as §1

[5] = strain KOX UFR21 (TEM-1, CTX-M-15, OXA-48)
[6] = strain KOX UFR224 (CTX-M-15, OXA-48)
[7] = strain PRE UFR236, antibacterial combined with AF1 @ 4 μg/mL
[8] = ATB alone, strain SMA UFR238 (OXA-48), read-out: MIC
[9] = strain SMA UFR30 (OXA-405), ATB alone, read-out: MIC
[10] = strain SMA UFR141 (OXA-48), ATB alone, read-out: MIC
[11] = strain SMA UFR142 (OXA-48), ATB alone, read-out: MIC
[12] = strain SMA UFR143 (CTX-M-15, OXA-1, OXA-48), ATB alone, read-out: MIC
[13] = strain SMA UFR238, antibacterial combined with AF1 @ 4 μg/mL

Compound | MIC ATB in combination ([1]; KOX UFR21) | MIC ATB in combination ([1]; KOX UFR173) | MIC ATB in combination ([1]; KOX UFR223) | MIC ATB in combination ([1]; KOX UFR224) | MIC [1, 5] | MIC [1, 6] | MIC ATB in combination ([2]; PRE UFR99, AF1 @ 4 μg/mL) | MIC ATB in combination [2, 7] | MIC ATB in combination [3] | MIC ATB in combination ([4]; SMA UFR30, AF1 @ 4 μg/mL) | MIC ATB in combination ([4]; SMA UFR134, AF1 @ 4 μg/mL) | MIC ATB in combination ([4]; SMA UFR135, AF1 @ 4 μg/mL) | MIC ATB in combination ([4]; SMA UFR136, AF1 @ 4 μg/mL) | MIC ATB in combination ([4]; SMA UFR137, AF1 @ 4 μg/mL) | MIC ATB in combination ([4]; SMA UFR138, AF1 @ 4 μg/mL) | MIC ATB in combination ([4]; SMA UFR139, AF1 @ 4 μg/mL) | MIC ATB in combination ([4]; SMA UFR141, AF1 @ 4 μg/mL) | MIC ATB in combination ([4]; SMA UFR142, AF1 @ 4 μg/mL) | MIC ATB in combination ([4]; SMA UFR143, AF1 @ 4 μg/mL) | MIC ATB in combination ([4]; SMA UFR239, AF1 @ 4 μg/mL) | also measured
CO/N=C(\C(=O)N[C@@H]1C(=O)N2C(C(=O)O)=C(COC(N)=O)CS[C@H]12)c1ccco1 [FUR, Cefuroxime] | 16 µg/mL | 4 µg/mL | 2 µg/mL | 2 µg/mL | > 256 µg/mL | > 256 µg/mL | >128 µg/mL | 8 µg/mL | 4 µg/mL | 64 µg/mL | 64 µg/mL | >128 µg/mL | >128 µg/mL | 32 µg/mL | 64 µg/mL | 64 µg/mL | 128 µg/mL | 64 µg/mL | 32 µg/mL | >128 µg/mL | MIC ([1]; strain KOX UFR173 (OXY2-2), read-out: MIC): > 256 µg/mL; MIC ([1]; strain KOX UFR223 (SHV-11, OXA-48), read-out: MIC): 8 µg/mL; MIC ([2]; strain PRE UFR99 (OXA-1, OXA-181)): > 256 µg/mL; MIC ([2]; strain PRE UFR236 (TEM-1, OXA-48), read-out: MIC): 64 µg/mL; MIC ([3]; Salmonella enterica, TYPHIMURIUM, strain STY S3371 (OXA-1), ATB alone): 32 µg/mL; MIC [4]: > 256 µg/mL; MIC [4, 8]: > 256 µg/mL; MIC [4, 9]: > 256 µg/mL; MIC ([4]; strain SMA UFR134 (TEM-1, BES-1), ATB alone, read-out: MIC): > 256 µg/mL; MIC ([4]; strain SMA UFR137 (SME-1), ATB alone, read-out: MIC): 256 µg/mL; MIC ([4]; strain SMA UFR138 (SME-1), ATB alone, read-out: MIC): 256 µg/mL; MIC ([4]; strain SMA UFR139 (SME-2), ATB alone, read-out: MIC): > 256 µg/mL; MIC [4, 10]: > 256 µg/mL; MIC [4, 11]: > 256 µg/mL; MIC [4, 12]: > 256 µg/mL; MIC ([4]; strain SMA UFR239 (ESAC), ATB alone, read-out: MIC): 256 µg/mL; MIC ATB in combination [4, 13]: 64 µg/mL
C=CC1=C(C(=O)O)N2C(=O)[C@@H](NC(=O)/C(=N\O)c3csc(N)n3)[C@H]2SC1 [CDR, Cefdinir] | 8 µg/mL | 0.5 µg/mL | <=0.25 μg/mL | <=0.25 μg/mL | > 256 µg/mL | > 256 µg/mL | >128 µg/mL | 2 µg/mL | <=0.25 μg/mL | 1 µg/mL | 4 µg/mL | 16 µg/mL | 16 µg/mL | 1 µg/mL | 4 µg/mL | 4 µg/mL | 4 µg/mL | 8 µg/mL | 2 µg/mL | 16 µg/mL | MIC ([1]; strain KOX UFR223 (SHV-11, OXA-48)): > 256 µg/mL; MIC [4, 8]: > 256 µg/mL; MIC [4, 9]: > 256 µg/mL; MIC ([4]; strain SMA UFR136 (TEM-1, SHV-12, KPC-2), ATB alone, read-out: MIC): > 256 µg/mL; MIC [4, 10]: > 256 µg/mL; MIC [4, 11]: > 256 µg/mL; MIC [4, 12]: > 256 µg/mL; MIC ATB in combination [4, 13]: 4 µg/mL
